From patent publication US9475814B2, “Chiral N-acyl-5,6,7(8-substituted)-tetrahydro-[1,2,4]triazolo[4,3-a]pyrazines as selective NK-3 receptor antagonists, pharmaceutical composition, methods for use in NK-3 receptor mediated disorders and chiral synthesis thereof” (Euroscreen S.A., priority 2011, dated 2016) come the findings set out here.

The target of assay [1] is T1, human NK-3 receptor (Homo sapiens (Human), UniProt P29371). In words: 3H-SB222200 binding competition assay with human NK-3 receptor.
Method: ^3H-SB222200 Binding Competition Assay with Human NK-3 Receptor
The membranes were incubated with 5 nM ^3H-SB222200(ARC) in a HEPES 25 mM/NaCl 0.1M/CaCl2 1 mM/MgCl2 5 Mm/BSA 0.5%/Saponin 10 μg/ml buffer at pH 7.4 and various concentrations of compounds of the invention. The amount of ^3H-SB222200 bound to the receptor was determined after filtration by the quantification of membrane associated radioactivity using the TopCount-NXT reader (Packard).
Assay [2] concerns the target T1, human NK-3 receptor. In words: Aequorin functional assay with human NK-3 receptor (antagonist testing vs NKA). Format: cell-based. To be noted: inhibition of NKA (3 nM, EC80) response, CHO cells expressing human NK3 receptor and apoaequorin.
A further assay addresses hERG channel (Homo sapiens (Human), UniProt Q12809). Description: hERG inhibition assay (manual patch-clamp, HEK 293 cells). For orientation: hERG is a cardiac potassium channel; its block is linked to QT prolongation.
A further assay addresses human NK2 receptor (Homo sapiens (Human), UniProt P21452). In words: Human NK2 [125I]-Neurokinin A binding assay (selectivity).
Another assay deals with human NK1 receptor (Homo sapiens (Human), UniProt P25103). Description: Human NK1 [3H] substance P binding assay (selectivity).
The mark [3] stands for this setting: Table 6, membranes of CHO cells expressing human NK3 receptor, 5 nM 3H-SB222200, read-out: Ki.
The mark [4] stands for this setting: read-out: NK2 Ki, for the racemate, value measured for the racemate of the numbered compound.
Where [5] appears, read: Table 7, human NK-3 receptor, read-out: NK3 Ki.
Setting [6] is: read-out: NK1 Ki, for the racemate, value measured for the racemate of the numbered compound.

Each structure is given as a SMILES string. Like-named read-outs stand apart in the source and are kept apart here.

Sequence of human NK2 receptor (P21452 whole entry): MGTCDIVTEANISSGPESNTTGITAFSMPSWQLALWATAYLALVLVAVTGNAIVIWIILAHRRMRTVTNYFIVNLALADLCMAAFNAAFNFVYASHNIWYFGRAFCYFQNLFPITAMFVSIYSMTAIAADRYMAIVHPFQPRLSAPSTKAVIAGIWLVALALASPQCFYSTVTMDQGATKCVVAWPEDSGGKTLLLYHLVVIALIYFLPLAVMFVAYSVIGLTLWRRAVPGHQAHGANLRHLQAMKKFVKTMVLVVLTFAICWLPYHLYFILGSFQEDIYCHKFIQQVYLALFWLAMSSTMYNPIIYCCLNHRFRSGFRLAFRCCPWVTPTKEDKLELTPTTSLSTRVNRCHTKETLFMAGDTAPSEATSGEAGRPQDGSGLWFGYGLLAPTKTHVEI
Sequence of human NK1 receptor (P25103 whole entry): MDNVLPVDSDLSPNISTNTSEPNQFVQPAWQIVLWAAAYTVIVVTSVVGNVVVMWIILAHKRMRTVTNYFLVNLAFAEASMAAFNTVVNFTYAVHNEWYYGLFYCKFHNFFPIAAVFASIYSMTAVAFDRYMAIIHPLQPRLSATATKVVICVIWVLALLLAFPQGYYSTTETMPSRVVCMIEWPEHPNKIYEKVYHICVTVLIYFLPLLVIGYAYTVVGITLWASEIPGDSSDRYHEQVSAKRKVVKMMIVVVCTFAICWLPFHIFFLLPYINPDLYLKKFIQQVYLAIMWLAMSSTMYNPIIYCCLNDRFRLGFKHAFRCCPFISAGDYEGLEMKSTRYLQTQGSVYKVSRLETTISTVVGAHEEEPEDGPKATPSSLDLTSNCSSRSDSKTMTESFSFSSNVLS
T1 sequence (P29371 whole entry): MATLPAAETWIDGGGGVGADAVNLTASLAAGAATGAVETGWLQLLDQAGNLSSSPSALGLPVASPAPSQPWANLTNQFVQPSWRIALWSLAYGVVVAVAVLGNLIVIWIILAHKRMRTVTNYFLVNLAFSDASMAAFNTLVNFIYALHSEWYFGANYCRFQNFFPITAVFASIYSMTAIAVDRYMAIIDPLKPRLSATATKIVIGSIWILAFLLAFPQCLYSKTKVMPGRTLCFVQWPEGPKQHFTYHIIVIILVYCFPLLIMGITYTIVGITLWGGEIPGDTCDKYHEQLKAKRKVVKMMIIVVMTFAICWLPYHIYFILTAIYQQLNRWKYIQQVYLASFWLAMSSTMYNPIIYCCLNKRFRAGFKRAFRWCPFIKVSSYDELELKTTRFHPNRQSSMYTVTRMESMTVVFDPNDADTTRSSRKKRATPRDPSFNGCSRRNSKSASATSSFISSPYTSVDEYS
Sequence of hERG channel (Q12809 whole entry): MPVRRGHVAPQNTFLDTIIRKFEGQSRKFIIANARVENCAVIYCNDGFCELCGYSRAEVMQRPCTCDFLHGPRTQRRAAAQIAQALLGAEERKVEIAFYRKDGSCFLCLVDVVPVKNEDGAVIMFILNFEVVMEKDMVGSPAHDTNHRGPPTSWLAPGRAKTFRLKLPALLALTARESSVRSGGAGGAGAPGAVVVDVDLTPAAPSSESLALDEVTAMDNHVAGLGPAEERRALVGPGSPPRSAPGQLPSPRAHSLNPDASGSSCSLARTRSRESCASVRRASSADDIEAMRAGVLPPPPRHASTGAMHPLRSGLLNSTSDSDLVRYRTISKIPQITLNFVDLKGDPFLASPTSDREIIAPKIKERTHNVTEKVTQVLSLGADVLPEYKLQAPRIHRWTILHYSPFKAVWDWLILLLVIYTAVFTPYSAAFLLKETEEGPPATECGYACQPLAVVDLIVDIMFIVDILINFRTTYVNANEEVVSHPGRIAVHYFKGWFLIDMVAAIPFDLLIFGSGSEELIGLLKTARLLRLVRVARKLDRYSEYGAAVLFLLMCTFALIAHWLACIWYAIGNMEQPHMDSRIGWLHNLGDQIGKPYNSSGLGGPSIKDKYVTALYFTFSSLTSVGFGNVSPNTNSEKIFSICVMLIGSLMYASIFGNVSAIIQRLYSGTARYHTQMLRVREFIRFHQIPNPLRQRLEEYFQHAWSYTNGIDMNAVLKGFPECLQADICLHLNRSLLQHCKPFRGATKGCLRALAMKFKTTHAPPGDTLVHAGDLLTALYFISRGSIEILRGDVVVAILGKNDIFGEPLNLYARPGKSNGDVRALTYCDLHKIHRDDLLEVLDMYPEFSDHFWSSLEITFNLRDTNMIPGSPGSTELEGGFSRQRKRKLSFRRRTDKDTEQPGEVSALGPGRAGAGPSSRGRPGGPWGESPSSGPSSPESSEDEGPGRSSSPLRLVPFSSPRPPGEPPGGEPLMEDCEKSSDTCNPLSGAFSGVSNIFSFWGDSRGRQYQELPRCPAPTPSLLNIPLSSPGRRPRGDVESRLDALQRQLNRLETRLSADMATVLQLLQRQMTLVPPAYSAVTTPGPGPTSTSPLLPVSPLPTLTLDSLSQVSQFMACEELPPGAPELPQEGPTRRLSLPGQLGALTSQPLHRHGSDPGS

Consider `Cc1nc(-c2nnc3n2CCN(C(=O)c2ccc(-c4ccccc4)cc2)[C@@H]3C)cs1` [Compound 2, (R)-[1,1′-biphenyl]-4-yl(8-methyl-3-(2-methylthiazol-4-yl)-5,6-dihydro-[1,2,4]triazolo[4,3-a]pyrazin-7(8H)-yl)methanone], for which, on human NK-3 receptor [1] (setting [3]), the Ki (usually the equilibrium dissociation constant of an inhibitor or competing ligand from its target) was 26 nM. The IC50 (in general, the concentration that gives 50% inhibition) at human NK-3 receptor [2] amounted to 28 nM.
Turning to `O=C(c1ccc(-c2cccs2)cc1)N1CCn2c(nnc2-c2csc(C(F)(F)F)n2)C1` [Compound 4, (4-(thiophen-2-yl)phenyl)(3-(2-(trifluoromethyl)thiazol-4-yl)-5,6-dihydro-[1,2,4]triazolo[4,3-a]pyrazin-7(8H)-yl)methanone], the results for the IC50 at hERG channel and against human NK-3 receptor [2] were above 30000 nM and 50 nM, respectively. The Ki on human NK-3 receptor [1] (setting [3]) is 56 nM.
Regarding `CCc1nc(-c2nnc3n2CCN(C(=O)c2ccc(-c4cccs4)cc2)[C@@H]3C)cs1` [Compound 5, (R)-(3-(2-ethylthiazol-4-yl)-8-methyl-5,6-dihydro-[1,2,4]triazolo[4,3-a]pyrazin-7(8H)-yl)(4-(thiophen-2-yl)phenyl)methanone], at human NK-3 receptor [1] (setting [3]), the Ki was determined as 5 nM. The compound also displayed an IC50 against human NK-3 receptor [2] of 3 nM.
In the case of `CCc1nc(-c2nnc3n2CCN(C(=O)c2ccc(-c4ccccc4)cc2)[C@@H]3C)cs1` [Compound 6, (R)-[1,1′-biphenyl]-4-yl(3-(2-ethylthiazol-4-yl)-8-methyl-5,6-dihydro-[1,2,4]triazolo[4,3-a]pyrazin-7(8H)-yl)methanone], the Ki at human NK-3 receptor [1] (setting [3]) turned out to be 11 nM. Further, on human NK-3 receptor [2], the IC50 was 10 nM.
In the same order, the values of `C=Cc1nc(-c2nnc3n2CCN(C(=O)c2ccc(-c4cccs4)cc2)[C@@H]3C)cs1` [Compound 7, (R)-(8-methyl-3-(2-vinylthiazol-4-yl)-5,6-dihydro-[1,2,4]triazolo[4,3-a]pyrazin-7(8H)-yl)(4-(thiophen-2-yl)phenyl)methanone] are 4 nM and 3 nM.
Consider `C=Cc1nc(-c2nnc3n2CCN(C(=O)c2ccc(-c4ccccc4)cc2)[C@@H]3C)cs1` [Compound 8, (R)-[1,1′-biphenyl]-4-yl(8-methyl-3-(2-vinylthiazol-4-yl)-5,6-dihydro-[1,2,4]triazolo[4,3-a]pyrazin-7(8H)-yl)methanone], for which, on human NK-3 receptor [1] (setting [3]), the Ki was 7 nM. Half-maximal inhibition at human NK-3 receptor [2] (IC50) required 7 nM.
With `C=Cc1nc(-c2nnc3n2CCN(C(=O)c2ccc(-c4cccs4)cc2)C3)cs1` [Compound 9, (4-(thiophen-2-yl)phenyl)(3-(2-vinylthiazol-4-yl)-5,6-dihydro-[1,2,4]triazolo[4,3-a]pyrazin-7(8H)-yl)methanone], the Ki on human NK-3 receptor [1] (setting [3]) stood at 19 nM. The compound further registered an IC50 against human NK-3 receptor [2] of 18 nM.
On to `C=Cc1nc(-c2nnc3n2CCN(C(=O)c2ccc(-c4ccccc4)cc2)C3)cs1` [Compound 10, [1,1′-biphenyl]-4-yl(3-(2-vinylthiazol-4-yl)-5,6-dihydro-[1,2,4]triazolo[4,3-a]pyrazin-7(8H)-yl)methanone], for which, at human NK-3 receptor [1] (setting [3]), the Ki came out at 36 nM. Also, on human NK-3 receptor [2], half-maximal inhibition (IC50) required 20 nM.
On to `Cc1nc(-c2nnc3n2CCN(C(=O)c2ccc(-c4ccccc4)cc2)[C@@H]3C)co1` [Compound 12, (R)-[1,1′-biphenyl]-4-yl(8-methyl-3-(2-methyloxazol-4-yl)-5,6-dihydro-[1,2,4]triazolo[4,3-a]pyrazin-7(8H)-yl)methanone], for which the Ki on human NK-3 receptor [1] (setting [3]) was determined as 70 nM. Besides, inhibition against human NK-3 receptor [2] was half-maximal at 58 nM (IC50).
Consider `CC(C)c1nc(-c2nnc3n2CCN(C(=O)c2ccc(-c4cccs4)cc2)[C@@H]3C)co1` [Compound 13, (R)-(3-(2-isopropyloxazol-4-yl)-8-methyl-5,6-dihydro-[1,2,4]triazolo[4,3-a]pyrazin-7(8H)-yl)(4-(thiophen-2-yl)phenyl)methanone], for which, at human NK-3 receptor [1] (setting [3]), the Ki is 3 nM. The same compound yielded an IC50 against human NK-3 receptor [2] of 2 nM.
`CC(C)c1nc(-c2nnc3n2CCN(C(=O)c2ccc(-c4cccs4)cc2)C3)co1` [Compound 14, (3-(2-isopropyloxazol-4-yl)-5,6-dihydro-[1,2,4]triazolo[4,3-a]pyrazin-7(8H)-yl)(4-(thiophen-2-yl)phenyl)methanone]: the Ki on human NK-3 receptor [1] (setting [3]) is 42 nM. On human NK-3 receptor [2], this compound yielded an IC50 of 47 nM.
As for `C[C@@H]1c2nnc(-c3coc(C4CC4)n3)n2CCN1C(=O)c1ccc(-c2cccs2)cc1` [Compound 15, (R)-(3-(2-cyclopropyloxazol-4-yl)-8-methyl-5,6-dihydro-[1,2,4]triazolo[4,3-a]pyrazin-7(8H)-yl)(4-(thiophen-2-yl)phenyl)methanone], the Ki on human NK-3 receptor [1] (setting [3]) was 11 nM. The compound also showed an IC50 at human NK-3 receptor [2] of 9 nM.
As for `Cc1nc(-c2nnc3n2CCN(C(=O)c2ccc(-c4cccs4)cc2)[C@@H]3C)c(C)s1` [Compound 16, (R)-(3-(2,5-dimethylthiazol-4-yl)-8-methyl-5,6-dihydro-[1,2,4]triazolo[4,3-a]pyrazin-7(8H)-yl)(4-(thiophen-2-yl)phenyl)methanone], the Ki on human NK-3 receptor [1] (setting [3]) came to 32 nM. Further, at human NK-3 receptor [2], the IC50 was found to be 30 nM.
Turning to `C[C@@H]1c2nnc(-c3csc(N(C)C)n3)n2CCN1C(=O)c1ccc(-c2cccs2)cc1` [Compound 17, (R)-(3-(2-(dimethylamino)thiazol-4-yl)-8-methyl-5,6-dihydro-[1,2,4]triazolo[4,3-a]pyrazin-7(8H)-yl)(4-(thiophen-2-yl)phenyl)methanone], the Ki on human NK2 receptor (setting [4]) is 9950 nM; on human NK-3 receptor [1] (setting [3]) it was 7 nM; at human NK-3 receptor [1] (setting [5]), 7 nM; at human NK1 receptor (setting [6]), 6060 nM. At human NK-3 receptor [2], this compound registered an IC50 of 7 nM.
On to `CC(C)c1nc(-c2nnc3n2CCN(C(=O)c2ccc(-c4cccs4)cc2)C3)cs1` [Compound 18, (3-(2-isopropylthiazol-4-yl)-5,6-dihydro-[1,2,4]triazolo[4,3-a]pyrazin-7(8H)-yl)(4-(thiophen-2-yl)phenyl)methanone], for which the Ki at human NK-3 receptor [1] (setting [3]) is 20 nM. This compound registered an IC50 against human NK-3 receptor [2] of 10 nM.
Consider `Cc1csc(-c2nnc3n2CCN(C(=O)c2ccc(-c4ccccc4)cc2)[C@@H]3C)n1` [Compound 20, (R)-[1,1′-biphenyl]-4-yl(8-methyl-3-(4-methylthiazol-2-yl)-5,6-dihydro-[1,2,4]triazolo[4,3-a]pyrazin-7(8H)-yl)methanone], for which the Ki on human NK-3 receptor [1] (setting [3]) was found to be 12 nM. On human NK-3 receptor [2], this compound showed an IC50 of 11 nM.
As to `Cc1csc(-c2nnc3n2CCN(C(=O)c2ccc(-c4ccccc4)cc2)C3)n1` [Compound 21, [1,1′-biphenyl]-4-yl(3-(4-methylthiazol-2-yl)-5,6-dihydro-[1,2,4]triazolo[4,3-a]pyrazin-7(8H)-yl)methanone], the Ki at human NK-3 receptor [1] (setting [3]) was 38 nM. On human NK-3 receptor [2], this compound showed an IC50 of 33 nM.
As to `Cc1noc(-c2nnc3n2CCN(C(=O)c2ccc(-c4cccs4)cc2)[C@@H]3C)n1` [Compound 23, (R)-(8-methyl-3-(3-methyl-1,2,4-oxadiazol-5-yl)-5,6-dihydro-[1,2,4]triazolo[4,3-a]pyrazin-7(8H)-yl)(4-(thiophen-2-yl)phenyl)methanone], the inhibition (as a rule, how much of the control response was suppressed) at 10 µM is below 25% on human NK2 receptor (read-out: NK2 % inhibition at 10 μM, for the racemate) and below 10% on human NK1 receptor (read-out: NK1 % inhibition at 10 μM, for the racemate). The Ki on human NK2 receptor (setting [4]) and on human NK1 receptor (setting [6]) was above 10000 nM in each case.
As to `CC(C)c1nsc(-c2nnc3n2CCN(C(=O)c2ccc(-c4cccs4)cc2)[C@@H]3C)n1` [Compound 25, (R)-(3-(3-isopropyl-1,2,4-thiadiazol-5-yl)-8-methyl-5,6-dihydro-[1,2,4]triazolo[4,3-a]pyrazin-7(8H)-yl)(4-(thiophen-2-yl)phenyl)methanone], the Ki at human NK-3 receptor [1] (setting [3]) stood at 3 nM. The same compound had an IC50 against human NK-3 receptor [2] of 3 nM.
`Cc1coc(-c2nnc3n2CCN(C(=O)c2ccc(-c4cccs4)cc2)[C@@H]3C)n1` [Compound 26, (R)-(8-methyl-3-(4-methyloxazol-2-yl)-5,6-dihydro-[1,2,4]triazolo[4,3-a]pyrazin-7(8H)-yl)(4-(thiophen-2-yl)phenyl)methanone] gave an IC50 at human NK-3 receptor [2] of 12 nM.
Regarding `Cc1coc(-c2nnc3n2CCN(C(=O)c2ccc(-c4ccccc4)cc2)[C@@H]3C)n1` [Compound 27, (R)-[1,1′-biphenyl]-4-yl(8-methyl-3-(4-methyloxazol-2-yl)-5,6-dihydro-[1,2,4]triazolo[4,3-a]pyrazin-7(8H)-yl)methanone], the Ki at human NK-3 receptor [1] (setting [3]) was found to be 51 nM. Moreover, it took 51 nM to reach half-maximal inhibition against human NK-3 receptor [2] (IC50).
Regarding `Cc1cc(-c2nnc3n2CCN(C(=O)c2ccc(-c4cccs4)cc2)[C@@H]3C)n(C)n1` [Compound 28, (R)-(3-(1,3-dimethyl-1H-pyrazol-5-yl)-8-methyl-5,6-dihydro-[1,2,4]triazolo[4,3-a]pyrazin-7(8H)-yl)(4-(thiophen-2-yl)phenyl)methanone], at human NK-3 receptor [1] (setting [3]), the Ki was 68 nM. Further, on human NK-3 receptor [2], the IC50 was 37 nM.
For the compound `Cc1cccc(-c2nnc3n2CCN(C(=O)c2ccc(-c4ccccc4)cc2)[C@@H]3C)n1` [Compound 29, (R)-[1,1′-biphenyl]-4-yl(8-methyl-3-(6-methylpyridin-2-yl)-5,6-dihydro-[1,2,4]triazolo[4,3-a]pyrazin-7(8H)-yl)methanone], on human NK-3 receptor [1] (setting [3]), the Ki was found to be 23 nM. The compound further showed an IC50 against human NK-3 receptor [2] of 18 nM.
On to `Cc1cccc(-c2nnc3n2CCN(C(=O)c2ccc(-c4cccs4)cc2)[C@@H]3C)n1` [Compound 30, (R)-(8-methyl-3-(6-methylpyridin-2-yl)-5,6-dihydro-[1,2,4]triazolo[4,3-a]pyrazin-7(8H)-yl)(4-(thiophen-2-yl)phenyl)methanone], for which the Ki on human NK2 receptor (read-out: NK2 Ki, CHO membranes, 0.1 nM [125I]-Neurokinin A) was determined as 5930 nM; at human NK-3 receptor [1] (setting [3]), 10 nM; on human NK-3 receptor [1] (setting [5]), 10 nM; on human NK1 receptor (read-out: NK1 Ki, CHO membranes, 2 nM [3H] substance P), 17200 nM. Moreover, on human NK-3 receptor [2], half-maximal inhibition (IC50) required 11 nM.
